Test results published in patent US12116371B2, “Substituted pyridines as irreversible inhibitors of menin-MLL interaction” (BIOMEA FUSION, INC., priority 2018, dated 2024).
Read-outs that look alike come from different tables or passages of the source.

Columns and labels:
Conditions in all cases: for IC50: Homo sapiens
MV4-11 cells [1] = assay: Long term proliferation assay, Cell Titer-Glo read-out; type: cell-based, human
Description: (§1) Compounds of invention are tested in the 5 suspension lines by 14-day long-term proliferation assay.
(§2) The compound is tested in 10-pt dose titration (client will determine the starting concentration and the dilution scheme) and the final DMSO concentration is kept at 0.2%.
(§3) On Day 0, in a flat bottom 96-well plate, add 100 μL of cells per well at the densities optimized. Prepare compounds in DMSO at 500× final concentration. Dilute the compounds with DMSO at the dilution. Dilute the compounds in media at 3× final concentration. Add 50 μL of compound or DMSO at 3× final concentration to each well. Final volume in each well is 150 μL, and final concentration of DMSO is 0.2%. Also include 3 untreated control wells, by adding 50 μL of media alone. Incubate plates for 96 hours.
(§4) To do this take the total viable cell count calculated using step: • 1. Take the average of the replicates for each dose in order to be used in splitting the cells. • 2. Use a 96 well V-bottom plate to spin down the cells to remove old media and compound to split the cells. • 3. Based on the split ratio place the proper amount of media and cells into the V-bottom plate, and spin the plate at 1100 rpm for 5 minutes. • 4. Following the spin remove the media, careful not to disturb the cell pellet. Re-suspend pellet in 100 μL fresh media, and add to a new 96-well flat bottom plate. • 5. Add fresh compound, in the same manner as Step 3). • 6. Incubate plates for 72 hours. Repeat steps 5)-10) on Day 7. • 7. Incubate plates for 96 hours. Repeat Step 5)-10) on Day 11. • 8. Incubate 72 hours and repeat step 5) to take a final count. • 9. Data Analysis
(§5) To calculate growth for days 4, 7, 11, and 14: • 1. Calculate the split factor for day 4 to 7, day 7 to 11, and day 11-14. The split factor is the viable cells/mL on Day X (either 4, 7 or 11) divided by the density the cells are being split back to. • 2. For growth of cells from day 4 to 7, multiply the day 7 viable cells/mL density by the split factor from day 4. • 3. For growth of cells from day 7 to 11, multiply the day 11 viable cells/mL density by the days 4, and 7 split factors. • 4. For growth of cells from Day 11 to 14, multiply the Day 14 viable cells/mL density by the days 4, 7, and 11 split factors. • 5. Plot growth on semi-log chart (viable cells/mL on Y axis, in log, and days on X axis). • 6. The growth inhibition was calculated with the formula ((untreated cell numbers-treated cell numbers)/untreated cell)). • 7. Calculate the IC50 for each compound in each line using XLFit (Sigmoidal Dose-Response Model, y=(Bottom+((Top-Bottom)/(1+((IC50/×)^Hill))))).

MOLM-13 cells [2] = assay: as above; type: cell-based, human
Description: as §1, §2, §3, §4, §5

Panc 10.05 cells = assay: Proliferation assay, cells in adhesion; type: cell-based
MIAPaCa-2/AMG510 cells = assay: Proliferation assay, cells in adhesion; type: cell-based
MV4-11 cells [3] = assay: Long term proliferation assay, InCell read-out; type: cell-based, human
Description: as §1, §2, §3, §4, §5

MOLM-13 cells [4] = assay: Long term proliferation assay, InCell read-out; type: cell-based, human
Description: as §1, §2, §3, §4, §5

IC50 (MV4-11 cells [1]; MV4-11, 96 h, MV4-11, Day 4, Cell Titer-Glo, read-out: Day 4 IC50): 360 nM
IC50 (MV4-11 cells [1]; MV4-11, 168 h, MV4-11, Day 7, Cell Titer-Glo, read-out: Day 7 IC50): 140 nM
IC50 (MV4-11 cells [1]; MV4-11, 264 h, MV4-11, Day 11, Cell Titer-Glo, read-out: Day 11 IC50): 110 nM
IC50 (MV4-11 cells [1]; MV4-11, 336 h, MV4-11, Day 14, Cell Titer-Glo, read-out: Day 14 IC50): 90 nM
IC50 (MV4-11 cells [1]; MV4-11, MV4-11, T4, CellTiter-Glo, read-out: IC50): 360 nM
IC50 (MV4-11 cells [1]; MV4-11, MV4-11, T4, CellTiter-Glo, read-out: pIC50 (converted)): 363 nM
IC50 (MV4-11 cells [1]; MV4-11, MV4-11, T11, CellTiter-Glo, read-out: IC50): 110 nM
IC50 (MV4-11 cells [1]; MV4-11, MV4-11, T11, CellTiter-Glo, read-out: pIC50 (converted)): 115 nM
IC50 (MOLM-13 cells [2]; MOLM-13, 96 h, MOLM-13, Day 4, Cell Titer-Glo, read-out: Day 4 IC50): 500 nM
IC50 (MOLM-13 cells [2]; MOLM-13, 168 h, MOLM-13, Day 7, Cell Titer-Glo, read-out: Day 7 IC50): 340 nM
IC50 (MOLM-13 cells [2]; MOLM-13, 264 h, MOLM-13, Day 11, Cell Titer-Glo, read-out: Day 11 IC50): 350 nM
IC50 (MOLM-13 cells [2]; MOLM-13, 336 h, MOLM-13, Day 14, Cell Titer-Glo, read-out: Day 14 IC50): 360 nM
IC50 (MOLM-13 cells [2]; MOLM-13, MOLM-13, T4, CellTiter-Glo, read-out: IC50): 500 nM
IC50 (MOLM-13 cells [2]; MOLM-13, MOLM-13, T4, CellTiter-Glo, read-out: pIC50 (converted)): 501 nM
IC50 (MOLM-13 cells [2]; MOLM-13, MOLM-13, T11, CellTiter-Glo, read-out: IC50): 350 nM
IC50 (MOLM-13 cells [2]; MOLM-13, MOLM-13, T11, CellTiter-Glo, read-out: pIC50 (converted)): 355 nM
IC50 (Panc 10.05 cells; Panc1005, Panc 10.05, T4, read-out: IC50): > 5000 nM
IC50 (Panc 10.05 cells; Panc1005, Panc 10.05, T4, read-out: pIC50 (converted)): > 5010 nM
IC50 (Panc 10.05 cells; Panc1005, Panc 10.05, T7, read-out: IC50): > 5000 nM
IC50 (Panc 10.05 cells; Panc1005, Panc 10.05, T7, read-out: pIC50 (converted)): > 5010 nM
IC50 (Panc 10.05 cells; Panc1005, Panc 10.05, T11, read-out: IC50): 4170 nM
IC50 (Panc 10.05 cells; Panc1005, Panc 10.05, T11, read-out: pIC50 (converted)): 4170 nM
IC50 (MIAPaCa-2/AMG510 cells; MIA PaCa-2, MIAPaCa-2/AMG510, T4, read-out: IC50): 810 nM
IC50 (MIAPaCa-2/AMG510 cells; MIA PaCa-2, MIAPaCa-2/AMG510, T4, read-out: pIC50 (converted)): 813 nM
IC50 (MIAPaCa-2/AMG510 cells; MIA PaCa-2, MIAPaCa-2/AMG510, T7, read-out: IC50): 350 nM
IC50 (MIAPaCa-2/AMG510 cells; MIA PaCa-2, MIAPaCa-2/AMG510, T7, read-out: pIC50 (converted)): 347 nM
IC50 (MIAPaCa-2/AMG510 cells; MIAPaCa-2/AMG510, T11, read-out: IC50): 270 nM
IC50 (MIAPaCa-2/AMG510 cells; MIAPaCa-2/AMG510, T11, read-out: pIC50 (converted)): 269 nM
IC50 (MV4-11 cells [3]; MV4-11, 96 h, MV4-11, Day 4, read-out: Day 4 IC50): 420 nM
IC50 (MV4-11 cells [3]; MV4-11, 264 h, MV4-11, Day 11, read-out: Day 11 IC50): 490 nM
IC50 (MV4-11 cells [3]; MV4-11, MV4-11, T4, read-out: IC50): 420 nM
IC50 (MV4-11 cells [3]; MV4-11, MV4-11, T4, read-out: pIC50 (converted)): 417 nM
IC50 (MV4-11 cells [3]; MV4-11, MV4-11, T11, read-out: IC50): 490 nM
IC50 (MV4-11 cells [3]; MV4-11, MV4-11, T11, read-out: pIC50 (converted)): 490 nM
IC50 (MOLM-13 cells [4]; MOLM-13, 96 h, MOLM-13, Day 4, read-out: Day 4 IC50): 150 nM
IC50 (MOLM-13 cells [4]; MOLM-13, 264 h, MOLM-13, Day 11, read-out: Day 11 IC50): 380 nM
IC50 (MOLM-13 cells [4]; MOLM-13, MOLM-13, T4, read-out: IC50): 150 nM
IC50 (MOLM-13 cells [4]; MOLM-13, MOLM-13, T4, read-out: pIC50 (converted)): 148 nM
IC50 (MOLM-13 cells [4]; MOLM-13, MOLM-13, T11, read-out: IC50): 380 nM
IC50 (MOLM-13 cells [4]; MOLM-13, MOLM-13, T11, read-out: pIC50 (converted)): 380 nM
SMILES: CN(C)C/C=C/C(=O)Nc1ccc(CC(=O)Nc2ccc(-c3cc4c(N5CCOCC5)ncnc4[nH]3)cc2)cc1 [Compound 5]
% max (MV4-11 cells [1]; MV4-11, T4, CellTiter-Glo): 99%
% max (MV4-11 cells [1]; MV4-11, T11, CellTiter-Glo): 99%
% max (MOLM-13 cells [2]; MOLM-13, T4, CellTiter-Glo): 98%
% max (MOLM-13 cells [2]; MOLM-13, T11, CellTiter-Glo): 99%
% max (Panc 10.05 cells; Panc 10.05, T4): <50%
% max (Panc 10.05 cells; Panc 10.05, T7): <50%
% max (Panc 10.05 cells; Panc 10.05, T11): 50%
% max (MIAPaCa-2/AMG510 cells; MIAPaCa-2/AMG510, T4): 92%
% max (MIAPaCa-2/AMG510 cells; MIAPaCa-2/AMG510, T7): 98%
% max (MIAPaCa-2/AMG510 cells; MIAPaCa-2/AMG510, T11): 99%
% max (MV4-11 cells [3]; MV4-11, T4): 83%
% max (MV4-11 cells [3]; MV4-11, T11): 83%
% max (MOLM-13 cells [4]; MOLM-13, T4): 97%
% max (MOLM-13 cells [4]; MOLM-13, T11): 98%
